According to article PMC7925099, “Identification of an Antiretroviral Small Molecule That Appears To Be a Host-Targeting Inhibitor of HIV-1 Assembly” (Journal of Virology, 2021):
Read-outs that look alike come from different tables or passages of the source.

Assays:
HIV-1 NL4-3 RLuc = assay: MT-2 spreading infection assay (inhibition of HIV-1 replication); conditions: for SI (CC50/EC50): from average values
Procedure: Inhibition of HIV-1 viral replication was assayed in a spreading infection using MT-2 cells and NL4-3 RLuc reporter virus. For dose-response curves, compounds were initially diluted with DMSO to 100-fold the starting concentration in a 96-well plate and subjected to a series of 3-fold dilutions in DMSO for a total of eight or nine dilutions. If a single compound concentration was tested, the compound was diluted to 100-fold the desired concentration in DMSO. Compounds were then diluted 50-fold with infection media prepared by diluting NL4-3 RLuc virus stock to 400 IU/100 μl with complete RPMI. Then, 100 μl of 50-fold-diluted compound was transferred to 20,000 MT-2 cells that were preseeded in 96-well plates in 100 μl of complete RPMI for a final volume of 200 μl, followed by incubation at 37°C for 96 h. The final MOI in infected plates was 0.02, and the final DMSO concentration in all wells was 1%. All assays were run with three replicates. For each replicate, one well received DMSO only, and one well received medium only for normalization and background correction. […] Plates were read on a luminescence plate reader (Synergy H1; BioTek Instruments, Inc.).
(§3) EC50 and CC50 values were determined in Excel using four-parameter logistic regression analysis of dose-response data generated from the viral inhibition or cytotoxicity assays, respectively. […] Average EC50 and CC50 values were calculated using the geometric mean and average values were reported with the geometric standard deviation (GSD).

in vitro = conditions: human
Procedure: (§4) For each viral inhibition assay, a cytotoxicity assay was performed in parallel on uninfected cells by adding 1/10 volume of alamarBlue (Thermo Fisher, Waltham, MA; DAL1199) to the plates, followed by thorough mixing. AlamarBlue-treated plates were incubated for 2 to 3 h at 37°C (the timing was optimized for the linear signal), mixed well, and read using a fluorescence plate reader with 560 nm and 590 nm as the excitation and emission settings, respectively (Synergy H1; BioTek Instruments, Inc.).
as §3

XRN1 = target: T1, XRN1 (Homo sapiens, UniProt Q8IZH2); assay: Biotin-XRN1 proximity ligation assay; assay type: cell-based; conditions: 293T-HIV; for PLA spots/cell (biotin-XRN1 PLA): 10 μM, 16 h
T1 construct: endogenous in cells; host or cells: 293T-HIV cells
Procedure: (§1) For each treatment, one-half of a Grace Biolabs Culture Well silicone chamber (Millipore-Sigma; GBL103380) was attached to a cover glass (Carl Zeiss, Oberkochen, Germany; catalog no. 474030-9000-000) to create four chambers on the cover glass. Each chambered cover glass was placed into a well of a 6-well plate, and the chambers were coated with poly-L-lysine and allowed to dry overnight. The next day, ∼4 × 10^3 293T/17 or 293T-HIV cells were seeded into each chamber, followed by incubation at 37°C for 5 to 6 h. After the cells adhered, they were treated with compound or DMSO. At 16 h posttreatment, the cells were fixed for 15 min in 4% paraformaldehyde in PBS (pH 7.4), permeabilized in 0.5% (wt/vol) saponin in PBS (pH 7.4) for 10 min, and blocked in Duolink blocking solution (Millipore-Sigma) at 37°C for 30 min. […] For quantification, 5 to 10 fields, each containing at least three IF-positive cells, were chosen at random and imaged using identical exposure times for each channel (100 to 150 ms for the PLA channel in red; 0.5 to 1 s for the IF channel in green, depending on the IF primary antibody; and 20 ms for the DAPI channel in blue). […] The ROIs identified in the IF channel were applied to a maximum intensity z projection of the PLA channel, and PLA spots within the ROI were counted using the find maxima function in Fiji, with noise threshold optimized to identify only PLA spots. Nuclei from each field were counted manually to determine the number of cells. […]

TIAR and G3BP1 = assay: TIAR-G3BP1 proximity ligation assay in compound-treated cells; assay type: cell-based, human; conditions: 10 μM; 16 h; 293T-HIV
Procedure: as §1, with “DMSO.” for “DMSO. At 16 h posttreatment, the cells were fixed for 15 min in 4% paraformaldehyde in PBS (pH 7.4), permeabilized in 0.5% (wt/vol) saponin in PBS (pH 7.4) for 10 min, and blocked in Duolink blocking solution (Millipore-Sigma) at 37°C for 30 min.”

DDX6 = target: T2, DDX6 (Homo sapiens, UniProt P26196); assay: Biotin-DDX6 proximity ligation assay; assay type: cell-based; conditions: for biotin-DDX6 PLA spots/cell: 16 h
T2 construct: endogenous in cells; host or cells: 293T/17 and 293T-HIV cells
T2 sequence (P26196 1-483): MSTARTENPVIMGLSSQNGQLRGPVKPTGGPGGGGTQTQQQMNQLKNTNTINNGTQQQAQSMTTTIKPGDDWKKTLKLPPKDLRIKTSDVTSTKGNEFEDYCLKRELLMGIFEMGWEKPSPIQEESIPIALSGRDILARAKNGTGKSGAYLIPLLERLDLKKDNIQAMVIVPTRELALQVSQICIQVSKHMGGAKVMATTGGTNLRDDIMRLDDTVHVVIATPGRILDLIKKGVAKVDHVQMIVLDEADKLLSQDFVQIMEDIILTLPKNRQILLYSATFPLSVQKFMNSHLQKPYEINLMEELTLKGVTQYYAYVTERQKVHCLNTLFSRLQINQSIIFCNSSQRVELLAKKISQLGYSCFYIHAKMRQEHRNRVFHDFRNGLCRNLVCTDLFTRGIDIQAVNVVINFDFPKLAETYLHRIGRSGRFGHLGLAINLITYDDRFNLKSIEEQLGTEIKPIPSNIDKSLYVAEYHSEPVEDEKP
Procedure: (§2) For each treatment, one-half of a Grace Biolabs Culture Well silicone chamber (Millipore-Sigma; GBL103380) was attached to a cover glass (Carl Zeiss, Oberkochen, Germany; catalog no. 474030-9000-000) to create four chambers on the cover glass. Each chambered cover glass was placed into a well of a 6-well plate, and the chambers were coated with poly-L-lysine and allowed to dry overnight. The next day, ∼4 × 10^3 293T/17 or 293T-HIV cells were seeded into each chamber, followed by incubation at 37°C for 5 to 6 h. After the cells adhered, they were treated with compound or DMSO. At 16 h posttreatment, the cells were fixed for 15 min in 4% paraformaldehyde in PBS (pH 7.4), permeabilized in 0.5% (wt/vol) saponin in PBS (pH 7.4) for 10 min, and blocked in Duolink blocking solution (Millipore-Sigma) at 37°C for 30 min. The cells were incubated in primary antibodies using the following concentrations: for the Gag-biotin PLA, mouse αGag p24 was used at 0.2 μg/ml, and rabbit αbiotin was used at 4 μg/ml; for the biotin-ABCE1 PLA, rabbit αABCE1 was used at 0.3 μg/ml, and mouse αbiotin was used at 0.7 μg/ml; for the biotin-DDX6 PLA, rabbit αDDX6 was used at 0.5 μg/ml and mouse αbiotin was used at 0.3 μg/ml; for the ABCE1-DDX6 PLA, rabbit αABCE1 was used at 0.3 μg/ml, and mouse αDDX6 was used at 0.3 μg/ml; for the biotin-G3BP1 PLA, rabbit αG3BP1 was used at 0.025 μg/ml, and mouse αbiotin was used at 0.2 μg/ml; for the TIAR-G3BP1 PLA, rabbit αG3BP1 was used at 0.025 μg/ml, and mouse αTIAR was used at 0.025 μg/ml; for the biotin-XRN1 PLA, rabbit α XRN1 was used at 0.5 μg/ml, and mouse αbiotin was used at 0.2 μg/ml; and for the DDX6-XRN1 PLA, rabbit αXRN1 was used at 0.5 μg/ml, and mouse αDDX6 was used at 0.5 μg/ml. For the NI control PLA experiments, NI control antibodies from the relevant species were used at the same concentration as the primary antibody they replaced. Primary incubation was followed by incubation with Duolink reagents (Millipore-Sigma): oligonucleotide-linked secondary antibody, ligation mix, and red amplification/detection mix, with washes in between, in accordance with the Duolink protocol. For concurrent IF analysis following the final 1× PLA buffer B washes, cells were incubated for 30 min at room temperature with 1:1,000 Alexa Fluor 488-anti-mouse secondary antibody. Cover glasses were mounted using Duolink in situ mounting medium with DAPI (4′,6′-diamidino-2-phenylindole; Millipore-Sigma), sealed to the glass slides with clear nail polish, allowed to dry for 24 h at room temperature, and stored at −20°C. Imaging was performed with a Zeiss Axio Observer.Z1/7 deconvolution microscope using Zeiss Plan-Apochromat 63×/aperture 1.4 objective with oil immersion, with Zen 2.6 (blue edition) software. For quantification, 5 to 10 fields, each containing at least three IF-positive cells, were chosen at random and imaged using identical exposure times for each channel (100 to 150 ms for the PLA channel in red; 0.5 to 1 s for the IF channel in green, depending on the IF primary antibody; and 20 ms for the DAPI channel in blue). Images were captured as a Z-stack of 80 to 90 0.24-μm slices that included the entire cell body and 5 μm above and below the cell (∼20 μm total). To determine the number of PLA spots per cell, image stacks were processed as follows in Fiji ([96]). First, an in-focus slice from the IF channel was selected using the Find Focused Slices plugin within ImageJ (Q. Tseng, 2020 [https://sites.google.com/site/qingzongtseng/find-focus]), and thresholding was used to generate regions of interest (ROI) that contained only cells. The ROIs identified in the IF channel were applied to a maximum intensity z projection of the PLA channel, and PLA spots within the ROI were counted using the find maxima function in Fiji, with noise threshold optimized to identify only PLA spots. Nuclei from each field were counted manually to determine the number of cells. […]

HIV-1 Gag = assay: Biotin-Gag proximity ligation assay; assay type: cell-based; conditions: for biotin-Gag PLA spots/cell: 16 h
Procedure: as §2

G3BP1 = target: T3, G3BP1 (Homo sapiens, UniProt Q13283); assay: Biotin-G3BP1 proximity ligation assay; assay type: cell-based; conditions: 293T-HIV; for PLA spots/cell (biotin-G3BP1 PLA): 10 μM, 16 h
T3 construct: endogenous in cells; host or cells: 293T-HIV cells
Procedure: as §1

ABCE1 = target: T4, ABCE1 (Homo sapiens, UniProt P61221); assay: Biotin-ABCE1 proximity ligation assay; assay type: cell-based; conditions: for biotin-ABCE1 PLA spots/cell: 16 h
T4 construct: endogenous in cells; host or cells: 293T/17 and 293T-HIV cells
Procedure: as §2

DDX6 and XRN1 = assay: DDX6-XRN1 proximity ligation assay in compound-treated cells; assay type: cell-based, human; conditions: 10 μM; 16 h; 293T-HIV
Procedure: as §1, with “DMSO.” for “DMSO. At 16 h posttreatment, the cells were fixed for 15 min in 4% paraformaldehyde in PBS (pH 7.4), permeabilized in 0.5% (wt/vol) saponin in PBS (pH 7.4) for 10 min, and blocked in Duolink blocking solution (Millipore-Sigma) at 37°C for 30 min.”

HIV-1 NL4-3 = assay type: cell-based; conditions: MT-2 cells, 37 weeks of selection
[1] = Human immunodeficiency virus 1, NL43, MT2

T1 sequence (Q8IZH2 whole entry): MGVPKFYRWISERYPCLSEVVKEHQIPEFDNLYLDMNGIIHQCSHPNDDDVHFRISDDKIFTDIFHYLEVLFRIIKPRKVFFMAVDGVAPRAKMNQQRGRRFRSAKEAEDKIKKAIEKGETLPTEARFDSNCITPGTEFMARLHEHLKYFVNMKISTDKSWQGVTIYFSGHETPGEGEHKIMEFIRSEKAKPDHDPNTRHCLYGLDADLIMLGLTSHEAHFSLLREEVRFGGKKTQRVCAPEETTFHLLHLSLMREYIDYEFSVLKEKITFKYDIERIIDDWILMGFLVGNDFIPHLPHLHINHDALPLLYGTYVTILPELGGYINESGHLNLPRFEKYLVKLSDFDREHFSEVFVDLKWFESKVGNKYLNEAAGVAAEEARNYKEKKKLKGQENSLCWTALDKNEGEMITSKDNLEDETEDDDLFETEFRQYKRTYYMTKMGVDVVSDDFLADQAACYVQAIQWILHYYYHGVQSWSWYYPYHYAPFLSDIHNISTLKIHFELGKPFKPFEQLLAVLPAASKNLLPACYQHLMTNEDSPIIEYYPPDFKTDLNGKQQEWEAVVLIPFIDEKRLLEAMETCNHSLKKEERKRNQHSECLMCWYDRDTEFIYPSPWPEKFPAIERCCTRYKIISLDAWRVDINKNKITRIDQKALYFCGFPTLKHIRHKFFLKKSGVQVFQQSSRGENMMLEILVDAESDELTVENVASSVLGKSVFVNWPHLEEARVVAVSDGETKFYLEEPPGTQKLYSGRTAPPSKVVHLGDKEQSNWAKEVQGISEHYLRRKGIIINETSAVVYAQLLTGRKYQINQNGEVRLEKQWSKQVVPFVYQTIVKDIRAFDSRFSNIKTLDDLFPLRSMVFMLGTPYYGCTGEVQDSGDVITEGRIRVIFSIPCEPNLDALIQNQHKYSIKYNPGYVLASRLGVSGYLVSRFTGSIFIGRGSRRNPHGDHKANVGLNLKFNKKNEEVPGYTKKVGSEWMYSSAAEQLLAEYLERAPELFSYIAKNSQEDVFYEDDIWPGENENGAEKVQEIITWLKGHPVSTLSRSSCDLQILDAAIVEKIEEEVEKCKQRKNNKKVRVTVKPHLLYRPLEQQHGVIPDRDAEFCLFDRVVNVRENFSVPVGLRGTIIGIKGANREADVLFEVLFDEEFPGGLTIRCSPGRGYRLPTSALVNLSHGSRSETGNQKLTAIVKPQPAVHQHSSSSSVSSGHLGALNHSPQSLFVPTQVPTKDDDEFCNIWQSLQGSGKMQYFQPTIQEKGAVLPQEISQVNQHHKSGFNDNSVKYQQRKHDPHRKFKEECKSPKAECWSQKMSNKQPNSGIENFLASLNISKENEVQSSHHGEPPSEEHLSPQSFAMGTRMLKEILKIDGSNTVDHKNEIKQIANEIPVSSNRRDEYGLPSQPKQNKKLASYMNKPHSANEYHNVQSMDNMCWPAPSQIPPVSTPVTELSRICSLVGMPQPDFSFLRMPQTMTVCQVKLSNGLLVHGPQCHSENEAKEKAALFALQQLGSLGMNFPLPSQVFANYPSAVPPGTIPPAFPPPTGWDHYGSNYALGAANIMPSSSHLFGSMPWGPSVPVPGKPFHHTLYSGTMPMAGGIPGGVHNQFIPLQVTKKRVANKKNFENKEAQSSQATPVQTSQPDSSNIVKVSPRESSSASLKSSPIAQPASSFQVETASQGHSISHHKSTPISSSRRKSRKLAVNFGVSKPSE
T3 sequence (Q13283 whole entry): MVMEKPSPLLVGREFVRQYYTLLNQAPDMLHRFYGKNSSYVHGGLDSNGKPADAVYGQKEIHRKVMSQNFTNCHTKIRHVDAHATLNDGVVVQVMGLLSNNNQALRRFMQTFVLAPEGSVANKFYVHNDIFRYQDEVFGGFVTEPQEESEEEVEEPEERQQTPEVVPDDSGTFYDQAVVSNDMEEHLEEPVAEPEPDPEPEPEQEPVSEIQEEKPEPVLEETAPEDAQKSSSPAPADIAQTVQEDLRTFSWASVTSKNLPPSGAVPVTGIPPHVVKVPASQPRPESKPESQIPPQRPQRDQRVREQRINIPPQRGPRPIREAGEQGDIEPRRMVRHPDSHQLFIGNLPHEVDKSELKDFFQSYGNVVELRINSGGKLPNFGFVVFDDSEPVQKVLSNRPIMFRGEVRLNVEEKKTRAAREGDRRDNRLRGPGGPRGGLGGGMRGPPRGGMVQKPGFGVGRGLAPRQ
Procedure for MT-2 cells: as §4, §3

## COc1ccc(/C=C/C2NCCc3cc(OCc4ccccc4)c(OC)cc32)c(C)c1 (centres unmarked) [PAV-218]
HIV-1 NL4-3 RLuc; MT-2 cells
  SI (CC50/EC50): 66
MT-2 cells
  CC50 (μM): 9.7 ×/÷ 1.2 μM

## COc1ccc(/C=C/C2NCCc3cc(OCc4ccccc4)c(OC)cc32)cc1OCc1ccccc1 (centres unmarked) [PAV-220]
HIV-1 NL4-3 RLuc; [1]
  EC50: 0.163 µM
HIV-1 NL4-3 RLuc; MT-2 cells
  SI (CC50/EC50): 23
In vitro; CC50 (μM)
  CC50: 3.8 µM

## COc1cc2c(cc1OCc1ccccc1)CCNC2/C=C/c1ccccc1C (centres unmarked) [PAV-245]
HIV-1 NL4-3 RLuc; [1]
  EC50: 0.755 µM
HIV-1 NL4-3 RLuc; MT-2 cells
  SI (CC50/EC50): 4.8
In vitro; CC50 (μM)
  CC50: 3.6 µM

## COc1cc2c(cc1OCc1ccccc1)CCNC2/C=C/c1ccccc1 (centres unmarked) [PAV-492]
HIV-1 NL4-3 RLuc; [1]
  EC50: 1.54 µM
HIV-1 NL4-3 RLuc; MT-2 cells
  SI (CC50/EC50): > 6
In vitro; CC50 (μM)
  CC50: > 10 µM

## COc1ccc(/C=C/C2NCCc3cc(OCc4ccccc4)c(OC)cc32)cc1 (centres unmarked) [PAV-493]
HIV-1 NL4-3 RLuc; MT-2 cells
  SI (CC50/EC50): 37
In vitro; CC50 (μM)
  CC50: 21 µM

## COc1cc2c(cc1OCc1ccccc1)CCNC2/C=C/c1cccc(OCc2ccccc2)c1 (centres unmarked) [PAV-494]
HIV-1 NL4-3 RLuc; [1]
  EC50: 0.244 µM
HIV-1 NL4-3 RLuc; MT-2 cells
  SI (CC50/EC50): 17
In vitro; CC50 (μM)
  CC50: 4.1 µM

## N#CCC(NC(=O)CCOCCOCCNC(=O)CCCC[C@@H]1SCC2NC(=O)NC21)C(=O)NCCCCOc1ccccc1 (some centres unmarked) [PAV-543, reference compound]
XRN1
  PLA spots/cell (biotin-XRN1 PLA): 3.8
HIV-1 NL4-3 RLuc; Human immunodeficiency virus 1, NL43, T-cell, read-out: EC50MT-2
  EC50: > 100 µM
TIAR and G3BP1
  PLA spots/cell (TIAR-G3BP1 PLA): 51.5
DDX6; 10 μM, 293T-HIV (HIV +)
  biotin-DDX6 PLA spots/cell: 12.6
HIV-1 Gag; 10 μM, 293T-HIV (HIV +)
  biotin-Gag PLA spots/cell: 9.3
G3BP1
  PLA spots/cell (biotin-G3BP1 PLA): 1.6
ABCE1; 10 μM, 293T-HIV (HIV +)
  biotin-ABCE1 PLA spots/cell: 4.5
DDX6 and XRN1
  PLA spots/cell (DDX6-XRN1 PLA): 77.4
In vitro; CC50
  CC50: > 100 µM

## COc1cc(C)c(C=CC2NCCc3cc(OCc4ccccc4)c(OC)cc32)cc1OCCCCNC(=O)C(CC1(C)N=N1)NC(=O)CCOCCOCCNC(=O)CCCCC1SCC2NC(=O)NC21 (centres unmarked) [PAV-818]
XRN1
  PLA spots/cell (biotin-XRN1 PLA): 5.3
XRN1; PLA
  colocalization with the P-body marker XRN1: does not colocalize
HIV-1 NL4-3 RLuc; Human immunodeficiency virus 1, NL43, T-cell, 96 h, read-out: EC50 for inhibition of HIV-1 replication
  EC50: 0.951 µM
HIV-1 NL4-3 RLuc; MT-2 cells, from the shown dose-response curve
  selectivity index (CC50/EC50): ~32
TIAR and G3BP1
  PLA spots/cell (TIAR-G3BP1 PLA): 35.0
DDX6; 5 μM, 293T-HIV (HIV +)
  biotin-DDX6 PLA spots/cell: 47.4
DDX6; 10 μM, 293T-HIV (HIV +)
  biotin-DDX6 PLA spots/cell: 65.1
DDX6; 10 μM, uninfected 293T (HIV −)
  biotin-DDX6 PLA spots/cell: 58.0
DDX6; 20 μM, 293T-HIV (HIV +)
  biotin-DDX6 PLA spots/cell: 82.9
DDX6; 293T-HIV
  fold more biotin-DDX6 PLA spots than in PAV-543-treated or DMSO-treated cells: ~5.1 fold
HIV-1 Gag; 5 μM, 293T-HIV (HIV +)
  biotin-Gag PLA spots/cell: 32.6
HIV-1 Gag; 10 μM, 293T-HIV (HIV +)
  biotin-Gag PLA spots/cell: 51.5
HIV-1 Gag; 10 μM, uninfected 293T (HIV −)
  biotin-Gag PLA spots/cell: 7.1
HIV-1 Gag; 20 μM, 293T-HIV (HIV +)
  biotin-Gag PLA spots/cell: 111.8
HIV-1 Gag; both at 10 μM, 293T-HIV
  fold more biotin-Gag PLA spots than with PAV-543: 5.5 fold
G3BP1
  PLA spots/cell (biotin-G3BP1 PLA): 6.3
G3BP1; PLA
  colocalization with the stress granule protein G3BP1: does not colocalize
ABCE1; 5 μM, 293T-HIV (HIV +)
  biotin-ABCE1 PLA spots/cell: 42.0
ABCE1; 10 μM, 293T-HIV (HIV +)
  biotin-ABCE1 PLA spots/cell: 64.2
ABCE1; 10 μM, uninfected 293T (HIV −)
  biotin-ABCE1 PLA spots/cell: 72.9
ABCE1; 20 μM, 293T-HIV (HIV +)
  biotin-ABCE1 PLA spots/cell: 104.7
ABCE1; both at 10 μM, 293T-HIV
  fold more biotin-ABCE1 PLA spots than with PAV-543: 14.3 fold
DDX6 and XRN1
  PLA spots/cell (DDX6-XRN1 PLA): 35.2
In vitro; CC50
  CC50: ~30 µM

## Cc1c(O)cccc1C(=O)N[C@@H](CSc1ccccc1)[C@H](O)CN1C[C@H]2CCCC[C@H]2C[C@H]1C(=O)NC(C)(C)C [nelfinavir, reference compound]
HIV-1 NL4-3
  resistance level reached: compound concentration allowing virus replication, fold higher than the EC50: 16 fold
